Data as given in patent US20080076147A1, “BIOFILM SAMPLING DEVICE” (BOARD OF TRUSTEES OF SOUTHERN ILLINOIS UNIVERSITY, priority 2006, published 2008).

Key:
Assay in all cases: Biocide kill of planktonic cells and biofilm on vascular catheter (serum flow model)
Format in all cases: cell-based
[1] = test system: Stenotrophomonas maltophilia; settings: 5 to 60 minutes; for biofilm kill (biocide concentration required to kill 50% of bacteria that grew in the biofilm): biofilm on vascular catheter, FIG. 17B; for planktonic cell kill (biocide concentration required to kill 100% of bacteria present as planktonic cells): planktonic cells on vascular catheter, FIG. 17A
Excerpt: (§1) A system as shown in FIG. 6 was used in this study. Serum and a biocide were placed in sealed bottles as the first fluid source 505 and the second fluid source 509, respectively. The fluid sources were connected to a pump 515 by conventional IV tubing. A second pump 531 was used to deliver the fluid mixture to the vascular catheter 3 positioned in the sampling apparatus 1.
(§2) Initially, only the first fluid source, serum inoculated with Acinetobacter baumanii (10×10^9 CFU/ml), was used to contaminate the catheter with planktonic cells. The inoculated fluid continuously flowed through IV tubing directly through the catheter for […] to form a layer of planktonic cells on the catheter. Fluid flow was then stopped and the tubing was then reconfigured as shown in FIG. 6 so that the second fluid source could be introduced. In these test runs, the first fluid source was inoculated with the same concentration of bacteria, and the second fluid source was a biocide (16-16,000 ppm) selected from hydrogen peroxide (H2O2), sodium hypochlorite (SHC), peracetic acid (PAA) and gluteraldehyde (GLT). The fluid mixture continuously flowed through the catheter for 5, 10, 15, 30, 45 or 60 minutes before fluid flow was discontinued to determine bacterial resistance of the planktonic cells on the catheter. In all, six runs were completed for each of four different biocides. After each run, the test catheter was then cut aseptically into 1 cm segments. The segments were transferred to test tubes containing one ml saline and the adherent cells were dislodged by sonication in an aquasonic device, vortexed for about one minute, and then counted on Tropic soya Agar. The number of viable cells were determined for each catheter and were compared to the number of viable cells in control samples (i.e., biocide-free serum) to calculate the biocide concentration required to kill 50% of the bacteria in the biofilm at the same time interval. Instead of saline, other appropriate buffer solutions can be used. In addition to plating cells on agar and counting the number of colonies, the amount of biofilm formed can be determined by a semiquantitive microtiter plate method. For example, adherent cells can be dislodged from test catheters as described above. The aliquots of solutions containing the cells from each catheter piece can then be added separately to wells of a 96-well tissue culture plate and incubated at 37° C. for 24 h. After several (e.g., three) washes with PBS, any remaining biofilm is stained with safranin O dye for 1 min and washed with PBS again. Optical density at 492 nm is determined with a 96-well plate spectrometer reader. For each time point, an aliquot without biocide is a positive control. Percent inhibition of biofilm accumulation can be determined from the formula (A492positive−A492biocide)/(A492positive−A492)×100%, Such plating methods are well known to one skilled in the art and could be modified as desired for analysis of the biofilm.
(§3) For determination of the bacterial resistance of the biofilm formed on the catheter, the method described above was repeated using the same conditions except that the inoculated fluid continuously flowed through the catheter for two hours before fluid flow was discontinued to form a biofilm on the catheter.
The experiment was repeated as described above, except that Stenotrophomonas maltophilia (1×10^9 CFU/ml) was used to inoculate the serum.

Pseudomonas aeruginosa = settings: 5 to 60 minutes; for biofilm kill (biocide concentration required to kill 50% of bacteria that grew in the biofilm): biofilm on vascular catheter, FIG. 16B; for planktonic cell kill (biocide concentration required to kill 100% of bacteria present as planktonic cells): planktonic cells on vascular catheter, FIG. 16A
Excerpt: as §1, §2, §3
The experiment was repeated as described above, except that Pseudomonas aeruginosa (1×10^9 CFU/ml) was used to inoculate the serum.

Acinetobacter baumanii = settings: 5 to 60 minutes
Excerpt: as §1
Initially, only the first fluid source, serum inoculated with Acinetobacter baumanii (10×10^9 CFU/ml), was used to contaminate the catheter with planktonic cells. The inoculated fluid continuously flowed through IV tubing directly through the catheter for […] to form a layer of planktonic cells on the catheter. […] The segments were transferred to test tubes containing one ml saline and the adherent cells were dislodged by sonication in an aquasonic device, vortexed for about one minute, and then counted on Tropic soya Agar. The number of viable cells were determined for each catheter and were compared to the number of viable cells in control samples (i.e., biocide-free serum) to calculate the biocide concentration required to kill 50% of the bacteria in the biofilm at the same time interval. […] In addition to plating cells on agar and counting the number of colonies, the amount of biofilm formed can be determined by a semiquantitive microtiter plate method. […]

Staphylococcus epidermis = settings: 5 to 60 minutes; for biofilm kill (biocide concentration required to kill 50% of bacteria that grew in the biofilm): biofilm on vascular catheter, FIG. 15B; for planktonic cell kill (biocide concentration required to kill 100% of bacteria present as planktonic cells): planktonic cells on vascular catheter, FIG. 15A
Excerpt: as §1, §2, §3
The experiment was repeated as described above, except that Staphylococcus epidermis (1×10^9 CFU/ml) was used to inoculate the serum.

[2] = test system: methicillin resistant Staphylococcus aureus (MRSA); settings: biofilm on vascular catheter, 5 to 60 minutes, FIG. 14B
Escherichia coli = settings: biofilm on vascular catheter, over all time periods (5 to 60 minutes), FIG. 12B
Burkholderia cepacia = settings: 5 to 60 minutes; for biofilm kill (biocide concentration required to kill 50% of bacteria that grew in the biofilm): biofilm on vascular catheter, FIG. 11B; for planktonic cell kill (biocide concentration required to kill 100% of bacteria present as planktonic cells): planktonic cells on vascular catheter, FIG. 11A
Excerpt: as §1, §2, §3
The experiment was repeated as described above, except that Burkholderia cepacia (1×10^9 CFU/ml) was used to inoculate the serum.

Enterococcus faecalis = settings: serum, 5 to 60 minutes

In the case of `O=CCCCC=O` [GLT, gluteraldehyde], the “biofilm kill (biocide concentration required to kill 50% of bacteria that grew in the biofilm)” value [1] is reported as “nearly identical effect”, the “planktonic cell kill (biocide concentration required to kill 100% of bacteria present as planktonic cells)” value [1] is reported as “somewhat more effective in killing planktonic cells as compared to SHC or PAA and considerably more effective than hydrogen peroxide” and the “biofilm kill (biocide concentration required to kill 50% of bacteria that grew in the biofilm)” value (Pseudomonas aeruginosa) is reported as “PAA>SHC>GLT>hydrogen peroxide”. The “planktonic cell kill (biocide concentration required to kill 100% of bacteria present as planktonic cells)” value (Pseudomonas aeruginosa) was “performed comparably and were more effective than hydrogen peroxide and SHC”, the “planktonic cell kill (biocide concentration required to kill 100% of bacteria present as planktonic cells)” value (Acinetobacter baumanii; planktonic cells on vascular catheter, FIG. 10A) was “most effective” and the “biofilm kill (biocide concentration required to kill 50% of bacteria that grew in the biofilm)” value (Staphylococcus epidermis) was “least effective”. For the same compound, the “planktonic cell kill (biocide concentration required to kill 100% of bacteria present as planktonic cells)” value (Staphylococcus epidermis) was “performed similarly in planktonic cell kill and outperformed hydrogen peroxide”, the “biofilm kill (biocide concentration required to kill 50% of bacteria that grew in the biofilm)” value [2] was “PAA>GLT>hydrogen peroxide>SHC” and the “biofilm kill (biocide concentration required to kill 50% of bacteria that grew in the biofilm)” value (Escherichia coli) was “least effective”. For the same compound, the “biofilm kill (biocide concentration required to kill 50% of bacteria that grew in the biofilm)” value (Burkholderia cepacia) was “nearly identical effect” and the “planktonic cell kill (biocide concentration required to kill 100% of bacteria present as planktonic cells)” value (Burkholderia cepacia) was “performed comparably and were more effective than hydrogen peroxide”.

`CC(=O)OO` [PAA, peracetic acid] was tested, and the “biofilm kill (biocide concentration required to kill 50% of bacteria that grew in the biofilm)” value [1] was “most effective”, the “planktonic cell kill (biocide concentration required to kill 100% of bacteria present as planktonic cells)” value [1] was “GLT was somewhat more effective in killing planktonic cells as compared to SHC or PAA” and the “biofilm kill (biocide concentration required to kill 50% of bacteria that grew in the biofilm)” value (Pseudomonas aeruginosa) was “most effective”. The “planktonic cell kill (biocide concentration required to kill 100% of bacteria present as planktonic cells)” value (Pseudomonas aeruginosa) was “performed comparably and were more effective than hydrogen peroxide and SHC”, the “biofilm kill (biocide concentration required to kill 50% of bacteria that grew in the biofilm)” value (Acinetobacter baumanii; biofilm on vascular catheter, FIG. 10B) was “most effective” and the “biofilm kill (biocide concentration required to kill 50% of bacteria that grew in the biofilm)” value (Staphylococcus epidermis) was “most effective”. For the same compound, the “planktonic cell kill (biocide concentration required to kill 100% of bacteria present as planktonic cells)” value (Staphylococcus epidermis) was “performed similarly in planktonic cell kill and outperformed hydrogen peroxide”, the “biofilm kill (biocide concentration required to kill 50% of bacteria that grew in the biofilm)” value [2] was “most effective” and the “biofilm kill (biocide concentration required to kill 50% of bacteria that grew in the biofilm)” value (Enterococcus faecalis; biofilm on vascular catheter, FIG. 13B) was “most effective”. The “planktonic cell kill (biocide concentration required to kill 100% of bacteria present as planktonic cells)” value (Enterococcus faecalis; planktonic cells on vascular catheter, FIG. 13A) was “most effective”, the “biofilm kill (biocide concentration required to kill 50% of bacteria that grew in the biofilm)” value (Escherichia coli) was “most effective” and the “biofilm kill (biocide concentration required to kill 50% of bacteria that grew in the biofilm)” value (Burkholderia cepacia) was “most effective”. For the same compound, the “planktonic cell kill (biocide concentration required to kill 100% of bacteria present as planktonic cells)” value (Burkholderia cepacia) was “performed comparably and were more effective than hydrogen peroxide”.
